According to patent US20240269308A1, “PRODRUGS OF TOPOISOMERASE I INHIBITOR FOR ADC CONJUGATIONS AND METHODS OF USE THEREOF” (priority 2022, published 2024):
In brackets after ≈: the same amount, converted by molar mass.

What was measured:
[1] = M3385 metabolism in human liver S9 without cofactors NADPH and UDPGA; assay type: in vitro ADME; settings: 240 min; for Relative UV Abundance* (%): M3385 incubated in human liver S9 without NADPH and UDPGA, single peak (parent or metabolite)
Text: (§1) Briefly, hepatocytes are complete liver cells, containing various first-phase and second-phase enzymes that can mediate various metabolic reactions; therefore, it is a better in vitro model to test metabolites. Liver S9 is the supernatant obtained by grinding and centrifuging the liver cells. The enzymes content is lower compared to Hepatocytes. It mainly contains CYP enzymes and some biphasic enzymes (but no biphasic coenzyme), so additional coenzyme (NADPH and UDPGA, etc.) is needed to mediate the biphasic reaction.
(§2) Assay buffer: 100 mM potassium phosphate buffer (K+/Mg2+ buffer, pH7.4):
(§3) The initial stock of liver S9 was diluted in K+/Mg^2+ buffer, pH 7.4 from 20 mg/ml to 2× Liver S9 (2 mg/mL) with alamethicin (50 μg/mL):
(§4) 2×LS9/compound M3385 solution was prepared.
(§5) Time zero/T0: 199 μL 2 mg/mL liver S9 solution; 100 μL of 8 mM NADPH solution; 100 μL of 20 mM UDPGA solution; and 1200 μL of ACN were added, vortexed at 1000 rpm for 5 min, then 1 μL of 4 mM test compound solution was added.
(§6) T240-without a co-factor: 199 μL 2 mg/mL liver S9 solution and 200 μL of buffer were added. The T240-w/o sample was prewarmed at 37° C. for 5 min and 1 μL of 4 mM test compound solution was added. After 240 min incubation, 1200 μL of ACN was added and then vortexed at 1000 rpm for 5 min.
(§7) Protein precipitation: quenched samples were centrifuged at 14000 rpm for 5 min.
(§8) Sample preparation: an aliquot of 1200 μL of the supernatant was evaporated under N2 stream until dry. Dried extracts were reconstituted with 200 μL of 25% aqueous ACN, vortexed for 2 minutes, centrifuged at 14000 rpm for 5 min, and then 3 μL of reconstituted supernatant were injected for LC-UV-MS analysis.

HCT-15 = HCT-15 cell killing EC50 (−v / +v); assay type: cell-based
SK-BR-3 cells = assay: SKBR3 cell-based anti-proliferation / viability assay (CellTiter-Glo); parameters: species or system human; settings: read-out: SKBR3 EC50
Method: The anti-Her2 viability assay protocol is following.
0.1% BSA was added to the Opti-MEM reduced serum media [Gibco, cat #31985-070]. This assay media was used for the dilution of ADC and free drug.
Cells were seeded in their growth media into 96 well plates (Thermo #136101) one day prior to adding ADCs: 1000/well SKBR3 cells in 80 uL media (target positive cells), 1000/well NCI-N87 cells in 80 uL media (target positive cells), 1000/well Calu-3 in 80 uL media (target positive cells), and 800/well NCI-H1975 cells in 80ul media (target negative cells).
Serial dilutions of free drug in 100% DMSO (1:4 10 pts starting from 100 uM) were prepared. Serially diluted payload was transferred into Opti-Mem with 0.1% BSA (10 uL into 990 uL media). Serial dilutions of ADCs/isotype controls at 1:4 in Opti-Mem with 0.1% BSA (starting from 5×1000 nM) were prepared. 20ul assay media diluted ADC/isotype conjugates as well as free drug were transferred to above cells. The plates were incubated at 37° C., 5% CO2 for 6 days. Plates were developed by adding 100ul CellTiter Glo 2.0. RT 5-10 min. Plates were read with Envision plate reader. Data was analyzed using Prism. Only inner 60 well are used for the assay. The edge wells were filled with media to prevent dry out.
The cell line used in the anti-proliferation assays was SK-BR-3, a human breast, adenocarcinoma (pleural effusion) cell line; The cells were grown in McCoy's 5a Medium+10% FBS. To run the assay, the cells (80 μl, 1000 cells) were added to each well in a 96-well plate and incubated for 24 hours at 37° C. with CO2. Next, the cells were treated with test compounds (20 μl) at various concentrations in appropriate cell culture medium (total volume, 0.1 mL). The control wells contain cells and the medium but lack the test compounds. The plates were incubated for 144 hours at 37° C. with CO2. CTG reagent was then added to the wells (100 μl). After the plates were shaken for 10 min and then incubated for 10 min at room temperature, paste the clear bottom with white back seal and record luminescence with Envision. The inhibition % was calculated according to the following equation: inhibition %=[1-(assay-blank)/(control-blank)]×100.

BCRP = target: T1, BCRP (Homo sapiens, UniProt Q9UNQ0); settings: not told
T1 sequence (Q9UNQ0 1-655): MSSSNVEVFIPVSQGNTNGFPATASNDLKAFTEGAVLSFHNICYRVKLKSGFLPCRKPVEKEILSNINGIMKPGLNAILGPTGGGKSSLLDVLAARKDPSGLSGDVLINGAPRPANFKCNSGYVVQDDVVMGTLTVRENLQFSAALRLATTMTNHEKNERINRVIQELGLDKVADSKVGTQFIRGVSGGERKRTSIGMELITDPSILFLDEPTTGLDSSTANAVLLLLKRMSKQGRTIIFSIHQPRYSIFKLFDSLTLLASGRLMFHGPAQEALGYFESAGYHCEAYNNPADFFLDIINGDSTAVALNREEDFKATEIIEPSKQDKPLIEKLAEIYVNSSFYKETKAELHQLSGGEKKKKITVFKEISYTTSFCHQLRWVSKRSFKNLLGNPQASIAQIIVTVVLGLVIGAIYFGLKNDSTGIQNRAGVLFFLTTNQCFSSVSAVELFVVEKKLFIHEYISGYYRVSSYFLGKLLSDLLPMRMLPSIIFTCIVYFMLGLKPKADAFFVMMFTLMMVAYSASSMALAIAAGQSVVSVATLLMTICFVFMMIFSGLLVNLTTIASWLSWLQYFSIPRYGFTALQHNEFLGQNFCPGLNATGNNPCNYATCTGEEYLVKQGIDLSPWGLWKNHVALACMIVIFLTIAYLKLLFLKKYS

[2] = M3385 metabolism in human liver S9 with NADPH and UDPGA; assay type: in vitro ADME; settings: 240 min; for Relative UV Abundance* (%): M3385 incubated in human liver S9 with NADPH and UDPGA, single peak (parent or metabolite)
Text: as §1
The metabolism of model compound M3385 was evaluated in human liver S9 with NADPH and UDPGA as follows:
as §2, §3, §4, §5
as §6, with “T240 with” for “T240-without”, “solution; 100” for “solution and 200”, “8 mM NADPH solution; and 100 μL of 20 mM UDPGA solution” for “buffer”, “T240” for “T240-w/o”
as §7, §8

pGP = pGP (Homo sapiens, UniProt P08183); settings: not told
pGP, sequence (P08183 whole entry): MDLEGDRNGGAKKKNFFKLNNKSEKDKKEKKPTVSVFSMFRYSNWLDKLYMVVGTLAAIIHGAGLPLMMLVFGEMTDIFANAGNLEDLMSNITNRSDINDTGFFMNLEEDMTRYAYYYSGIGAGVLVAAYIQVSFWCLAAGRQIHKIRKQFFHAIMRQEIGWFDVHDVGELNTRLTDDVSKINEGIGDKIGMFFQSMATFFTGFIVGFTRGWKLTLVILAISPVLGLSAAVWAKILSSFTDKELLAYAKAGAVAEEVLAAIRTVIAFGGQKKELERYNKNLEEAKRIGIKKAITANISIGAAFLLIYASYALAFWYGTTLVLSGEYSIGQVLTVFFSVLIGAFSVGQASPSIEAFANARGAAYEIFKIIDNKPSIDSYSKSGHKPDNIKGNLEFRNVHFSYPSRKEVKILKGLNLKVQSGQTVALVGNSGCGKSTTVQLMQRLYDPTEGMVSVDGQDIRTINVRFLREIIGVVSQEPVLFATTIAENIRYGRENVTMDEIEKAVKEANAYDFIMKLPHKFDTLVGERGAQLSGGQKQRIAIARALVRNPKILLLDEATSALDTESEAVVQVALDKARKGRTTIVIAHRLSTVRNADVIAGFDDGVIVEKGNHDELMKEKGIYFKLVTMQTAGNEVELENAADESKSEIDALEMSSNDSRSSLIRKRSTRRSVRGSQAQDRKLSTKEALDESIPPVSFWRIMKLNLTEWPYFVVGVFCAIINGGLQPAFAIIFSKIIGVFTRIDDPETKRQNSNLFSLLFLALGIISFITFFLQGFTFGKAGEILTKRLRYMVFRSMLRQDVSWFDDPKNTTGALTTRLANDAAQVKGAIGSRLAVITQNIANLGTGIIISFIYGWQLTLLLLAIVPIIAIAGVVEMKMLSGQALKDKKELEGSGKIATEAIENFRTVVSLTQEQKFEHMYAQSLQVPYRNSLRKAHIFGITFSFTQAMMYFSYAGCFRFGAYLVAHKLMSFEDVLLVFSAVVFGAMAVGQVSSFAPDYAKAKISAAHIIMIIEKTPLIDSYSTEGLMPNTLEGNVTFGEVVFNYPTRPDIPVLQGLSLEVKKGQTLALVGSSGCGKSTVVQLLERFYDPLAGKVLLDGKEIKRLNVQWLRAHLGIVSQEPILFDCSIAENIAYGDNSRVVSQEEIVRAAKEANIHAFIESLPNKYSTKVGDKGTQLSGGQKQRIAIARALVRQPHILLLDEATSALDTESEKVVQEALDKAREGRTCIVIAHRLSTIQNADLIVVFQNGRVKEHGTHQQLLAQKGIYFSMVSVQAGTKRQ

[3] = Mouse whole blood stability test; assay type: in vitro ADME
Method: In vitro stability of Linker-Prodrug in mouse whole blood Scheme 15. Metabolism of LP1 (M2980) in whole blood.
Stock solution of test compound was provided in 100% DMSO. The stock solution for each compound was diluted into 500 μM with mixture of 50% acetonitrile, then diluted into mouse blood to achieve a final concentration of 1.0 μM. 1.0 μM of test compound in duplicate was incubated in blood at 37° C. Aliquots of 50 uL sample was collected at 0, 15, 30, 60, 120, 240, 480 min, and 24 hours. Reactions were terminated at various time points (0, 15, 30, 60, 120, 240, 480 min, 24 hours) by adding 200 μL of ice-cold acetonitrile containing internal standard with 1% formic acid and then ultrasound for 30 seconds. Plate was centrifuged (4000 rpm, 15 min). 50 μL of supernatants were transferred into a daughter plate containing 200 μL of H2O in each well. The samples were mixed well and analyzed with UPLC-MS/MS.
A Waters liquid chromatographic system was used. Detection was performed on AP14000 Q-Trap and AP15500 mass spectrometer equipped with TurbolonSpray (ESI) Interface (Applied Biosystems, Concord, Ontario, Canada). Analyst 1.5 and 1.6.2 software packages (Applied Biosystems) were used to control the LC-MS/MS system, as well as for data acquisition and processing.
Chromatographic separation was achieved on the Wates BEH C18 column (50*2.1 mm ID, 1.7 μm). The column temperature was maintained at ambient temperature (25° C.). The flow rate was maintained at 0.6 mL/min and the following mobile phases were used: water (0.1% formic acid, v/v) (phase A) and acetonitrile (0.1% formic acid, v/v) (phase B).
Test compounds (1.0 μM) were incubated in blood at 37° C. in duplicate. Aliquots of 50 uL sample was collected at 0, 15, 30, 60, 120, 240, 480 min, and 24 hours. Reactions were terminated at various time points (0, 15, 30, 60, 120, 240, 480 min, 24 hours by adding 200 μL of ice-cold acetonitrile containing internal standard with 1% formic acid, then ultrasound for 30 seconds. The plate was centrifuged (4000 rpm, 15 min). 50 μL of supernatants were transferred into a daughter plate containing 200 μL of water in each well. Samples were mixed well and analyzed with UPLC-MS/MS.
The % was calculated based on initial 1 uM as 100% and the standard concentration curve.

[4] = Solubility (Certificate of Analysis of LP1, physical and chemical properties); assay type: physicochemical; settings: LP1 13g lot, free base
[5] = Special liability / stability (Certificate of Analysis of LP1, physical and chemical properties); assay type: physicochemical; settings: LP1 13g lot, free base

## CC[C@@]1(O)C(=O)OCc2c1cc1n(c2=O)Cc2c-1nc1cc(F)c(C)c3c1c2[C@@H](NC(=O)COCNC(=O)CN)CC3 [MP1]
[1]; human, 10 μM, pH 7.4
  Relative UV Abundance* (%), group total: 4.93%

## CC[C@@]1(O)C(=O)OCc2c1cc1n(c2=O)Cc2c-1nc1cc(F)c(C)c3c1c2[C@@H](N)CC3 [EXT, reference compound]
HCT-15; +v
  EC50: 1.13 nM
HCT-15; −v
  EC50: 1.22 nM
SK-BR-3 cells
  EC50: 0.52 nM

## CC[C@@]1(O)C(=O)OCc2c1cc1n(c2=O)Cc2c-1nc1cc(F)c(C)c3c1c2[C@@H](NC(=O)COCNC(=O)CN)CC3 [ProDXd]
BCRP
  BCRP efflux rate: Lower
[2]; human, 10 μM, pH 7.4
  Relative UV Abundance* (%), group total: 3.94%
pGP
  pGP efflux rate: Lower
[3]; mouse, 0 hr, 1 μM
  % of test compound in whole blood (initial 1 uM as 100%): 100.0%
[3]; mouse, 0.25 hr, 1 μM
  % of test compound in whole blood (initial 1 uM as 100%): 63.9%
[3]; mouse, 0.5 hr, 1 μM
  % of test compound in whole blood (initial 1 uM as 100%): 39.0%
[3]; mouse, 1 hr, 1 μM
  % of test compound in whole blood (initial 1 uM as 100%): 30.7%
[3]; mouse, 2 hr, 1 μM
  % of test compound in whole blood (initial 1 uM as 100%): 14.8%
[3]; mouse, 4 hr, 1 μM
  % of test compound in whole blood (initial 1 uM as 100%): 2.7%
[3]; mouse, 8 hr, 1 μM
  % of test compound in whole blood (initial 1 uM as 100%): 0.3%
[3]; mouse, 24 hr, 1 μM
  % of test compound in whole blood (initial 1 uM as 100%): 0.0%

## CC[C@@]1(O)C(=O)OCc2c1cc1n(c2=O)Cc2c-1nc1cc(F)c(C)c3c1c2[C@@H](NC(=O)COCNC(=O)CNC(=O)OCc1ccc(NC(=O)[C@H](CCCNC(N)=O)NC(=O)[C@@H](NC(=O)CCOCCOCCOCCOCCNC(=O)COC2C#CCCCCC2)C(C)C)cc1)CC3 (stereo partly drawn) [LP1, {4-[(2S)-5-(carbamoylamino)-2-[(2S)-2-{1-[2-(cyclooct-2-yn-1-yloxy)acetamido]-3,6,9,12-tetraoxapentadecan-15-amido}-3-methylbutanamido]pentanamido]phenyl}methyl N-({[({[(10S,23S)-10-ethyl-18-fluoro-10-hydroxy-19-methyl-5,9-dioxo-8-oxa-4,15-diazahexacyclo[14.7.1.0^2,14.0^4,13.0^6,11.0^20,24]tetracosa-1,6(11),12,14,16,18,20(24)-heptaen-23-yl]carbamoyl}methoxy)methyl]carbamoyl}methyl)carbamate]
[4]; in water
  solubility: 0.026 mM (≈ 36.3 µg/mL)
[4]; organic solvent or mixture, in DMSO
  solubility: 10 mM (≈ 14000 µg/mL)
[5]
  Special liability (light): Light sensitive
  Special liability (pH stability): unstable at pH <3 or pH >11
[3]; mouse blood, 37° C., 1.0 μM, 0 hr
  % of test compound in whole blood (initial 1 uM as 100%): 100.0%
[3]; mouse blood, 37° C., 1.0 μM, 0.25 hr
  % of test compound in whole blood (initial 1 uM as 100%): 88.8%
[3]; mouse blood, 37° C., 1.0 μM, 0.5 hr
  % of test compound in whole blood (initial 1 uM as 100%): 82.6%
[3]; mouse blood, 37° C., 1.0 μM, 1 hr
  % of test compound in whole blood (initial 1 uM as 100%): 72.3%
[3]; mouse blood, 37° C., 1.0 μM, 2 hr
  % of test compound in whole blood (initial 1 uM as 100%): 52.8%
[3]; mouse blood, 37° C., 1.0 μM, 4 hr
  % of test compound in whole blood (initial 1 uM as 100%): 30.5%
[3]; mouse blood, 37° C., 1.0 μM, 8 hr
  % of test compound in whole blood (initial 1 uM as 100%): 16.5%
[3]; mouse blood, 37° C., 1.0 μM, 24 hr
  % of test compound in whole blood (initial 1 uM as 100%): 0.0%
[3]; mouse whole blood, 37° C.
  Metabolism in whole blood: metabolized to ProDXD, and then to DXd

## CC[C@@](O)(C(=O)O)c1cc2n(c(=O)c1CO)Cc1c-2nc2cc(F)c(C)c3c2c1[C@@H](NC(=O)CO)CC3 [MP2R]
[2]
  Relative UV Abundance* (%): 0.14%
[1]
  Relative UV Abundance* (%): 0.18%

## CC[C@@](O)(C(=O)O)c1cc2n(c(=O)c1CO)Cc1c-2nc2cc(F)c(C)c3c2c1[C@@H](NC(=O)COCNC(=O)CN)CC3 [MP1R]
[2]
  Relative UV Abundance* (%): 0.29%
[1]
  Relative UV Abundance* (%): 0.38%
